Values of other authors in patent publication US7767881B2, “Utilization of histamine receptor h3 gene participating in body weight or food intake control” (priority 2001, dated 2010).

Tests used:
mice [1] = tested on: mice
mice [2] = tested on: mice; remark: listed apart in the source
[3] = experimental epilepsy model
[4] = tested on: senescence-accelerated mice; settings: senescence-accelerated mice with learning disabilities
mice [5] = tested on: mice; remark: listed apart in the source

SMILES: CCCN(CCC)C1CCc2cccc(O)c2C1 (centres unmarked) [8-OH-DPAT]
- histamine neuron metabolic turnover (histamine neuron): reduce histamine neuron metabolic turnover

SMILES: Clc1cccc(Cl)c1NC1=NCCN1 [clinidine]
- histamine neuron metabolic turnover (histamine neuron): reduce histamine neuron metabolic turnover

SMILES: S=C(NC1CCCCC1)N1CCC(c2cnc[nH]2)CC1 [thioperamide]
- analgesia (mice [1]; due to stimulation of the histamine receptor H1 protein, antagonized by RAMH): attenuation of analgesia
- anxiety (mice [2]): anxiety-inducing effects
- electroconvulsion [3]: suppressed
- learning [4]: improving learning
- waking (cats; effect antagonized by RAMH): waking effects were observed
- effect on RAMH-induced increase in deep slow-wave sleep (cats; given against RAMH): reversed

SMILES: C[C@@H](N)Cc1c[nH]cn1 [RAMH, R-α-methylhistamine]
- voluntary movement (mice [5]): decreases voluntary movement
- deep slow-wave sleep (cats; administration of the agonist): significant increase in deep slow-wave sleep
- voluntary movement (rats): decreases voluntary movement

SMILES: NC(=NCc1ccc(Cl)cc1)SCCCc1cnc[nH]1 [Clobenpropit]
- electroconvulsion [3]: suppressed

SMILES: NCCc1c[nH]cn1 [histamine]
- analgesic/algesic action (mice [1]; mice, intracerebral administration): analgesic and/or algesic action, depending on the dose

SMILES: O=C1CC2(CCCC2)CC(=O)N1CCCCN1CCN(c2ncccn2)CC1 [buspirone]
- histamine neuron metabolic turnover (histamine neuron): reduce histamine neuron metabolic turnover
